One experiment concerns the target T1, human TREK-1 (Homo sapiens, UniProt O95069).
T1 construct: expressed in transfected cells
T1 sequence (O95069 1-426): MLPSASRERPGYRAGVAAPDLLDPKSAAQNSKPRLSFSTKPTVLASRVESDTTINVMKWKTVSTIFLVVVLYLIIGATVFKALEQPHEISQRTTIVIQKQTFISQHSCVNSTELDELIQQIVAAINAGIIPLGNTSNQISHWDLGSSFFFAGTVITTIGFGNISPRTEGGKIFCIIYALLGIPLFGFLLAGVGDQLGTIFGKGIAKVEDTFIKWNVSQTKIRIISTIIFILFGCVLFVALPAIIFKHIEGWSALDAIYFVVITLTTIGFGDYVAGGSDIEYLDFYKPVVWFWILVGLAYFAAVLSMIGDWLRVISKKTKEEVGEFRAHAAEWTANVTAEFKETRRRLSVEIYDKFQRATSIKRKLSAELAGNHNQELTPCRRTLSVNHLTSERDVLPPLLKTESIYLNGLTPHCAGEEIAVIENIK
The experiment is described as follows: TREK-1 Thallium (Tl+) flux assay, Method 1. Format: cell-based. The following applies: TREK-1 Thallium (Tl+) flux assay, Method 1. In a few lines: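 CHO-K1 cells stably expressing human TREK-1, loaded with Thallos dye, received compound or 0.3% DMSO vehicle for 10 min before thallium stimulus buffer. ΔRatio is fluorescence at 25 s after thallium addition over mean pre-addition fluorescence; % inhibition calculated from it.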
Compound `COc1ccc(-c2cnc(NC(=O)c3c(Cl)cnn3C3CCN(C(=O)OC(C)(C)C)CC3)c(C)c2)c(C)c1` [Compound 403, tert-butyl 4-(4-chloro-5-((5-(4-methoxy-2-methylphenyl)-3-methylpyridin-2-yl)carbamoyl)-1H-pyrazol-1-yl)piperidine-1-carboxylate] displayed an IC50 of 2.29 µM.

`CC(=O)N1CCOC(Cn2ncc(Cl)c2C(=O)Nc2ccc(OCc3ccccc3)cc2C)C1` (stereo not drawn) [Compound 423, 1-((4-acetylmorpholin-2-yl)methyl)-N-(4-(benzyloxy)-2-methylphenyl)-4-chloro-1H-pyrazole-5-carboxamide]: 4.82 µM corresponded to half-maximal inhibition (IC50). `CCC(=O)N1CCOC(Cn2ncc(Cl)c2C(=O)Nc2ccc(OCc3ccccc3)cc2C)C1` (stereo not drawn) [Compound 435] yielded an IC50 of 8.11 µM. On the same count and under the same terms, in the case of `Cc1cc(-c2cnn(-c3ccccc3)c2)cnc1NC(=O)c1c(Cl)cnn1C1CCN(C(=O)OC(C)(C)C)CC1` [Compound 413, tert-butyl 4-(4-chloro-5-((3-methyl-5-(1-phenyl-1H-pyrazol-4-yl)pyridin-2-yl)carbamoyl)-1H-pyrazol-1-yl)piperidine-1-carboxylate] it was 3.53 µM.

The experiment is the same for the next values; noted with them: TREK-1 Thallium (Tl+) flux assay; no *^12 (Method 2) mark on these rows.
Compound `Cc1cc(C#Cc2ccccc2)cnc1NC(=O)c1c(Cl)cnn1C[C@@H]1CCN(C(=O)OC(C)(C)C)C[C@H]1F` [Compound 241, tert-butyl (3S,4S)-4-((4-chloro-5-((3-methyl-5-(phenylethynyl)pyridin-2-yl)carbamoyl)-1H-pyrazol-1-yl)methyl)-3-fluoropiperidine-1-carboxylate] yielded an IC50 of 0.37 µM. Still for that read-out and setting: for `CC(C)(C)OC(=O)N1CC[C@@H](Cn2ncc(Cl)c2C(=O)Nc2ncc(C#Cc3ccccc3)cc2F)[C@H](F)C1` [Compound 240, tert-butyl (3S,4S)-4-((4-chloro-5-((3-fluoro-5-(phenylethynyl)pyridin-2-yl)carbamoyl)-1H-pyrazol-1-yl)methyl)-3-fluoropiperidine-1-carboxylate] the value was 0.37 µM.

`Cc1cc(C#Cc2ccccc2)cnc1NC(=O)c1c(Cl)nn(C)c1-c1ccc2c(cnn2C)c1` [Compound 364, 3-chloro-1-methyl-5-(1-methyl-1H-indazol-5-yl)-N-(3-methyl-5-(phenylethynyl)pyridin-2-yl)-1H-pyrazole-4-carboxamide] had an IC50 of 0.91 µM. This IC50 lies about 2.5-fold higher than the previous one. The same measure, in the same setting: in the case of `Cc1cc(C#Cc2ccccc2)cnc1NC(=O)c1c(Cl)cnn1C1CCN(C(=O)C(C)(C)C)CC1` [Compound 220, 4-chloro-N-(3-methyl-5-(phenylethynyl)pyridin-2-yl)-1-(1-pivaloylpiperidin-4-yl)-1H-pyrazole-5-carboxamide] it was 0.34 µM.

Consider `Cc1cc(C#Cc2ccccc2)cnc1NC(=O)c1c(Cl)cnn1CC1(C)CCN(C(=O)C2CC2)CC1` [Compound 295], for which the IC50 is 0.53 µM.

`Cc1cc(C#Cc2ccc(F)cc2)cnc1NC(=O)c1c(Cl)cnn1C1CC2(CCN(C(=O)C3COCCO3)C2)C1` (stereo not drawn) [Compound 310, 4-chloro-1-[6-(1,4-dioxane-2-carbonyl)-6-azaspiro[3.4]octan-2-yl]-N-{5-[(4-fluorophenyl)ethynyl]-3-methylpyridin-2-yl}-1H-pyrazole-5-carboxamide]: the IC50 was 0.58 µM.

`Cc1cc(C#Cc2ccc(F)cc2)cnc1NC(=O)c1c(Cl)cnn1C1CCN(C(=O)C(C)C)C1` (stereo not drawn) [Compound 305, 4-chloro-N-(5-((4-fluorophenyl)ethynyl)-3-methylpyridin-2-yl)-1-(1-isobutyrylpyrrolidin-3-yl)-1H-pyrazole-5-carboxamide] registered an IC50 of 0.57 µM.

`Cc1cc(C#Cc2ccccc2)cnc1NC(=O)c1c(Cl)cnn1-c1ccc2c(c1)OCO2` [Compound 283, 1-(benzol[d][1,3]dioxol-5-yl)-4-chloro-N-(3-methyl-5-(phenylethynyl)pyridin-2-yl)-1H-pyrazole-5-carboxamide] returned an IC50 of 0.49 µM. The same measure, in the same setting: in the case of `CC(=O)N1CC[C@@H](n2ncc(Cl)c2C(=O)Nc2ncc(C#Cc3ccccc3)cc2C)C1` [Compound 202, (R)-1-(1-acetylpyrrolidin-3-yl)-4-chloro-N-(3-methyl-5-(phenylethynyl)pyridin-2-yl)-1H-pyrazole-5-carboxamide] it was 0.31 µM. Same read-out and setting: for `Cc1cc(C#Cc2cccc(F)c2)cnc1NC(=O)c1c(Cl)cnn1C[C@H]1COCCO1` [Compound 286, (S)-1-((1,4-dioxan-2-yl)methyl)-4-chloro-N-(5-((3-fluorophenyl)ethynyl)-3-methylpyridin-2-yl)-1H-pyrazole-5-carboxamide] the value was 0.5 µM; for `CC(=O)N1CCC(n2ncc(Cl)c2C(=O)Nc2ncc(C#Cc3ccccc3)cc2C)C1` (stereo not drawn) [Compound 238, 1-(1-acetylpyrrolidin-3-yl)-4-chloro-N-(3-methyl-5-(phenylethynyl)pyridin-2-yl)-1H-pyrazole-5-carboxamide], 0.37 µM; for `CC(=O)N1CC[C@@H](n2ncc(Cl)c2C(=O)Nc2ncc(C#Cc3ccccc3)cc2C)C[C@@H]1C` (single isomer, unassigned) [Compound 261, 1-[(2S,4R)-1-acetyl-2-methylpiperidin-4-yl]-4-chloro-N-[3-methyl-5-(phenylethynyl)pyridin-2-yl]-1H-pyrazole-5-carboxamide or 1-[(2R,4S)-1-acetyl-2-methylpiperidin-4-yl]-4-chloro-N-[3-methyl-5-(phenylethynyl)pyridin-2-yl]-1H-pyrazole-5-carboxamide], 0.43 µM.

For `Cc1cc(-c2cnn(-c3ccc(F)cc3)c2)cnc1NC(=O)c1c(Cl)cnn1C1CCOCC1` [Compound 381, 4-chloro-N-(5-(1-(4-fluorophenyl)-1H-pyrazol-4-yl)-3-methylpyridin-2-yl)-1-(tetrahydro-2H-pyran-4-yl)-1H-pyrazole-5-carboxamide], the midpoint of inhibition, the IC50, lay at 0.6 µM. Turning to `Cc1cc(C#Cc2ccccc2)cnc1NC(=O)c1c(Cl)cnn1CC1COCC1C` (stereo not drawn) [Compound 281, 4-chloro-N-(3-methyl-5-(phenylethynyl)pyridin-2-yl)-1-((4-methyltetrahydrofuran-3-yl)methyl)-1H-pyrazole-5-carboxamide], the IC50 was determined as 0.49 µM. On the same count and under the same terms, for `CC(=O)N1CCC(Cn2ncc(Cl)c2C(=O)Nc2ncc(C#Cc3ccc(F)cc3)cc2C)C(C)C1` (stereo not drawn) [Compound 244, 1-((1-acetyl-3-methylpiperidin-4-yl)methyl)-4-chloro-N-(5-((4-fluorophenyl)ethynyl)-3-methylpyridin-2-yl)-1H-pyrazole-5-carboxamide] the value was 0.38 µM; for `Cc1ccc(C#Cc2cnc(NC(=O)c3c(Cl)cnn3[C@H]3CCOC3)c(C)c2)cc1` [Compound 316, (S)-4-chloro-N-(3-methyl-5-(p-tolylethynyl)pyridin-2-yl)-1-(tetrahydrofuran-3-yl)-1H-pyrazole-5-carboxamide], 0.61 µM; for `COCCn1ncc(Cl)c1C(=O)Nc1ncc(C#Cc2ccccc2)cc1C` [Compound 369, 4-chloro-1-(2-methoxyethyl)-N-(3-methyl-5-(phenylethynyl)pyridin-2-yl)-1H-pyrazole-5-carboxamide], 0.95 µM.

Regarding `Cc1cc(C#Cc2ccc(F)cc2)cnc1NC(=O)c1c(Cl)cnn1CC1(F)CCN(C(=O)C2CC2C)CC1` (stereo not drawn) [Compound 348, 4-chloro-1-((4-fluoro-1-(2-methylcyclopropane-1-carbonyl)piperidin-4-yl)methyl)-N-(5-((4-fluorophenyl)ethynyl)-3-methylpyridin-2-yl)-1H-pyrazole-5-carboxamide], the IC50 came out at 0.78 µM. For the compound `O=C(Nc1ncc(C#Cc2ccccc2)cc1Cl)c1c(Cl)cnn1C[C@H]1COCCO1` [Compound 361, (S)-1-((1,4-dioxan-2-yl)methyl)-4-chloro-N-(3-chloro-5-(phenylethynyl)pyridin-2-yl)-1H-pyrazole-5-carboxamide], the IC50 is 0.91 µM. With `O=C(Nc1c(F)cc(C#Cc2ccccc2)cc1F)c1c(Cl)cnn1C[C@H]1COCCO1` [Compound 252, (S)-1-((1,4-dioxan-2-yl)methyl)-4-chloro-N-(2,6-difluoro-4-(phenylethynyl)phenyl)-1H-pyrazole-5-carboxamide], the IC50 was 0.41 µM.

The same experiment, now with this note: TREK-1 Thallium (Tl+) flux assay; values without footnote *12 are Method 1.
`CC(=O)N1CC[C@H](n2ncc(Cl)c2C(=O)Nc2ncc(C#Cc3ccccc3)cc2C)[C@H](F)C1` [Compound 99, 1-((3R,4S)-1-acetyl-3-fluoropiperidin-4-yl)-4-chloro-N-(3-methyl-5-(phenylethynyl)pyridin-2-yl)-1H-pyrazole-5-carboxamide] gave an IC50 of 0.18 µM. That is a sub-micromolar value.

The compound `Cc1cc(C#Cc2cccs2)cnc1NC(=O)c1c(Cl)cnn1C1CC2(C1)CN(C(=O)C1CC1)C2` [Compound 36, 4-chloro-1-(2-(cyclopropanecarbonyl)-2-azaspiro[3.3]heptan-6-yl)-N-(3-methyl-5-(thiophen-2-ylethynyl)pyridin-2-yl)-1H-pyrazole 5-carboxamide] came in with an IC50 of 0.11 µM.

Staying with this experiment, now noted: read-out: Tl^+ Assay % inhibition at 30 uM (Minus value indicates activation of TREK-1); at 30 uM; CHO-K1 cells stably expressing human TREK-1; minus = activation.
For the compound `Cc1cc(C#Cc2ccccc2)cnc1NC(=O)c1nn(C2CCOCC2)cc1Cl` [Compound 443, 4-chloro-N-(3-methyl-5-(phenylethynyl)pyridin-2-yl)-1-(tetrahydro-2H-pyran-4-yl)-1H-pyrazole-3-carboxamide], the inhibition at 30 µM is -116%.

Usually IC50 stands for the midpoint of a concentration-inhibition curve. One may read the inhibition as the relative decrease from the control value, in per cent.
